The results in this text go back to patent US20220095619A1, “METHOD OF CONTROLLING WEEDS IN A CULTIVATION AREA OF DETERMINATE SOYBEAN” (SUMITOMO CHEMICAL COMPANY, LIMITED, priority 2019, published 2022).

Data set [1] relates to Harosoy/Indeterminate soybean. Put plainly: Example 3 pot test, pre-emergence soil spray: crop injury on soybean variety Harosoy. It counts as in vivo, Glycine max. The conditions noted are these: 18 days after treatment. The source says:
(§1) The evaluation of the herbicidal effect and crop injury is classified into 0 to 100, where the numeral “0” indicates no or little difference in the state of germination or growth of weeds or soybean under test at the time of examination as comparison with untreated weeds or soybean, respectively and the numeral “100” indicates the complete death of weeds or soybean under test or the complete inhibition of their germination or growth of weeds or soybean under test.
(§2) Four varieties of determinate soybean, four varieties of indeterminate soybean, Palmer amaranth, kochia and large crabgrass were sown to a pot filled with a soil. On the next day, a trifludimoxazin spray liquid. (prepared by diluting an emuslfiable concentrate of trifludimoxazin with water) was uniformly sprayed onto the pot at the amount of 200 L, per hectare so that the application rate of trifludimoxazin might be 25 and 50 g per hectare. 18 days after treatment, herbicidal effects on weeds and injury on soybeans were investigated. As a result, the herbicidal effect on each of the three weeds was 100.

Data set [2] concerns palmer amaranth, waterhemp, kochia, common ragweed and marestail. Put plainly: Example 2 pot test, spray on day of weed sowing, before soybean sowing: herbicidal effect on weeds. The conditions noted are these: 25 or 50 g per hectare; applied on day of weed sowing; 21 days after sowing soybeans. It counts as in vivo.
Source text: as §1
(§3) A pot is filled with a soil, and then Palmer amaranth, waterhemp, kochia, common ragweed and marestail are sown thereto. On the same day, trifludimoxazin spray liquid (prepared by diluting trifludimoxazin formulation (an aqueous suspension concentrate containing 500 g/L of trifludimoxazin) with water) is uniformly applied onto the pot using a sprayer at the amount of 200 L per hectare so that the application rate of trifludimoxazin may be 25 or 50 g per hectare. On the next day, determinate soybean, indeterminate soybean, and semi-determinate soybean are sown. 21 days after sowing soybeans, herbicidal effects and injuries on various soybeans are investigated.

In data set [3] the test system is Sachiyutaka/Determinate soybean. Put plainly: Example 3 pot test, pre-emergence soil spray: crop injury on soybean variety Sachiyutaka. In kind it is in vivo, Glycine max. Particulars: 18 days after treatment.
Source text: as §1, §2

The test system of data set [4] is determinate soybean, indeterminate soybean, semi-determinate soybean. Put plainly: Example 1 pot test, spray two days after sowing: injury on soybeans. In kind it is in vivo, Glycine max. The conditions noted are these: 25 or 50 g per hectare; applied two days after sowing; 21 days after the treatment.
Source text: as §1
as §3, with “the determinate soybean, indeterminate soybean, semi-determinate soybean, palmer” for “then Palmer”, “Two days later,” for “On the same day,”, “an” for “(an”, “hectare.” for “hectare. On the next day, determinate soybean, indeterminate soybean, and semi-determinate soybean are sown.”, “the treatment,” for “sowing soybeans,”

Another data set relates to kochia. Nature of the data set: Example 3 pot test, pre-emergence soil spray: herbicidal effect on kochia. In kind it is in vivo, Kochia scoparia. The conditions noted are these: 25 and 50 g per hectare, 18 days after treatment, 100 = complete death.
Source text: as §1, §2

The subject of a further data set is large crabgrass. Put plainly: Example 3 pot test, pre-emergence soil spray: herbicidal effect on large crabgrass. The conditions noted are these: 25 and 50 g per hectare, 18 days after treatment, 100 = complete death. In kind it is in vivo, Digitaria sanguinalis.
Source text: as §1, §2

Data set [5] deals with determinate soybean, indeterminate soybean, and semi-determinate soybean. Put plainly: Example 2 pot test, spray one day before soybean sowing: injury on soybeans. It counts as in vivo, Glycine max. The conditions noted are these: 25 or 50 g per hectare; applied one day before sowing soybeans; 21 days after sowing soybeans.
Source text: as §1, §3

The test system of data set [6] is palmer amaranth, waterhemp, kochia, common ragweed and marestail. Put plainly: Example 1 pot test, spray two days after sowing: herbicidal effect on weeds. Particulars: 25 or 50 g per hectare; applied two days after sowing; 21 days after the treatment. In kind it is in vivo.
Source text: as §1
as §3, with “the determinate soybean, indeterminate soybean, semi-determinate soybean, palmer” for “then Palmer”, “Two days later,” for “On the same day,”, “an” for “(an”, “hectare.” for “hectare. On the next day, determinate soybean, indeterminate soybean, and semi-determinate soybean are sown.”, “the treatment,” for “sowing soybeans,”

Data set [7] deals with Toyomusume/Determinate soybean. Nature of the data set: Example 3 pot test, pre-emergence soil spray: crop injury on soybean variety Toyomusume. In kind it is in vivo, Glycine max. The conditions noted are these: 18 days after treatment.
Source text: as §1, §2

The subject of data set [8] is Tambaguro/Determinate soybean. Put plainly: Example 3 pot test, pre-emergence soil spray: crop injury on soybean variety Tambaguro. It counts as in vivo, Glycine max. Particulars: 18 days after treatment, 0 = no or little difference from untreated, 100 = complete death.
Source text: as §1, §2

In data set [9] the test system is Fukunari/Determinate soybean. Put plainly: Example 3 pot test, pre-emergence soil spray: crop injury on soybean variety Fukunari. The conditions noted are these: 18 days after treatment. It counts as in vivo, Glycine max.
Source text: as §1, §2

Data set [10] has as its system Williams 82/Indeterminate soybean. Put plainly: Example 3 pot test, pre-emergence soil spray: crop injury on soybean variety Williams 82. It counts as in vivo, Glycine max. The conditions noted are these: 18 days after treatment.
Source text: as §1, §2

For a further data set, the system named is Palmer amaranth. Put plainly: Example 3 pot test, pre-emergence soil spray: herbicidal effect on Palmer amaranth. It counts as in vivo, Amaranthus palmeri. The conditions noted are these: 25 and 50 g per hectare, 18 days after treatment, 100 = complete death.
Source text: as §1, §2

Data set [11] relates to Kurosengoku/Indeterminate soybean. Nature of the data set: Example 3 pot test, pre-emergence soil spray: crop injury on soybean variety Kurosengoku. Particulars: 18 days after treatment. It counts as in vivo, Glycine max.
Source text: as §1, §2

The subject of data set [12] is Wild soybean/Indeterminate. Put plainly: Example 3 pot test, pre-emergence soil spray: crop injury on wild soybean. In kind it is in vivo, Glycine soja. Particulars: 18 days after treatment.
Source text: as §1, §2

For the compound `C#CCN1C(=O)C(F)(F)Oc2cc(F)c(-n3c(=O)n(C)c(=S)n(C)c3=O)cc21` [trifludimoxazin], the “injury on soybeans (0 to 100 scale)” value is reported as 30 in [1] (25 g/hectare); 50 in data set [1] (50 g/hectare); 0 in data set [3] (25 g/hectare); 0 in data set [3] (50 g/hectare); 0 in data set [7] (25 g/hectare); 5 in data set [7] (50 g/hectare). In addition, the “injury on soybeans (0 to 100 scale)” value was determined as 0 in [8] (25 g/hectare); 10 in [8] (50 g/hectare); 0 in data set [9] (25 g/hectare); 0 in data set [9] (50 g/hectare); 40 in data set [10] (25 g/hectare); 80 in data set [10] (50 g/hectare). Further, the “injury on soybeans (0 to 100 scale)” value is on record as 30 in [11] (25 g/hectare), 60 in data set [11] (50 g/hectare), 100 in data set [12] (25 g/hectare) and 100 in [12] (50 g/hectare). The results for the “herbicidal effects on weeds” value in data set [2] and in [6] were “High effects on all weeds” and “High herbicidal effects on all weeds”, respectively. For the same compound, the “injuries on various soybeans (comparison of growth habits)” value in [4] is “injury on determinate soybean is less than those on indeterminate soybean and semi-determinate soybean”; in data set [5], “injury on determinate soybean is less than those on indeterminate soybean and semi-determinate soybean”. The “herbicidal effect (0 to 100 scale)” value in the data set with kochia, in the data set on large crabgrass and with Palmer amaranth was 100 each time.
